System: MV-4-11 cells
Experiment: Gene expression microarray analysis (Affymetrix PrimeView) and GSEA
Assay type: cell-based, human
Parameters: RFU PODN (11730768_x_at) / Fold change /veh PODN (11730768_x_at) / RFU LINC00158 (11744669_a_at) / Fold change /veh LINC00158 (11744669_a_at) / RFU DUSP10 (11751237_a_at) / Fold change /veh DUSP10 (11751237_a_at) / RFU ID3 (11757404_x_at) / Fold change /veh ID3 (11757404_x_at) / RFU PLEKHG5 (11737974_s_at) / Fold change /veh PLEKHG5 (11737974_s_at) / RFU LRRC4B (11730491_at) / Fold change /veh LRRC4B (11730491_at) / RFU GIMAP4 (11747438_a_at) / Fold change /veh GIMAP4 (11747438_a_at) / RFU KRT8 (11758183_x_at) / Fold change /veh KRT8 (11758183_x_at) / RFU CNN1 (11734310_a_at) / Fold change /veh CNN1 (11734310_a_at) / RFU VPS37D (11726825_at) / Fold change /veh VPS37D (11726825_at) / RFU C10orf10 (11716522_x_at) / Fold change /veh C10orf10 (11716522_x_at) / RFU KIR2DL2 /// KIR2DL4 /// KIR2DL5A /// KIR2DL5B /// KIR2DS1 /// KIR2DS2 /// KIR2DS3 /// KIR2DS4 /// KIR3DL3 /// KIR3DL3 /// KIR3DS1 (11738374_at) / Fold change /veh KIR2DL2 /// KIR2DL4 /// KIR2DL5A /// KIR2DL5B /// KIR2DS1 /// KIR2DS2 /// KIR2DS3 /// KIR2DS4 /// KIR3DL3 /// KIR3DL3 /// KIR3DS1 (11738374_at) / RFU C1QL1 (11718748_at) / Fold change /veh C1QL1 (11718748_at) / RFU TMPRSS4 (11747572_a_at) / Fold change /veh TMPRSS4 (11747572_a_at) / RFU HAMP (11756126_x_at) / Fold change /veh HAMP (11756126_x_at) / RFU RNFT2 (11725882_a_at) / Fold change /veh RNFT2 (11725882_a_at) / RFU NR4A2 (11747474_a_at) / Fold change /veh NR4A2 (11747474_a_at) / RFU ABCC12 (11746883_a_at) / Fold change /veh ABCC12 (11746883_a_at) / RFU TMEM136 (11760407_x_at) / Fold change /veh TMEM136 (11760407_x_at) / RFU CLDN22 /// WWC2 (11732394_at) / Fold change /veh CLDN22 /// WWC2 (11732394_at) / RFU HLA-DPB1 (11760878_x_at) / Fold change /veh HLA-DPB1 (11760878_x_at) / RFU SPINT1 (11716480_a_at) / Fold change /veh SPINT1 (11716480_a_at) / RFU GAP43 (11754022_s_at) / Fold change /veh GAP43 (11754022_s_at) / RFU A4GNT (11735810_at) / Fold change /veh A4GNT (11735810_at) / RFU PRB3 (11715151_x_at) / Fold change /veh PRB3 (11715151_x_at) / RFU TUBB4B (11761932_at) / Fold change /veh TUBB4B (11761932_at) / RFU CAPN14 (11732068_a_at) / Fold change /veh CAPN14 (11732068_a_at) / RFU TMCC2 (11721928_a_at) / Fold change /veh TMCC2 (11721928_a_at) / RFU IRGQ (11745062_a_at) / Fold change /veh IRGQ (11745062_a_at) / RFU FAM174B (11720279_a_at) / Fold change /veh FAM174B (11720279_a_at) / RFU TMPRSS4 (11748680_a_at) / Fold change /veh TMPRSS4 (11748680_a_at) / RFU FAM212B (11763350_a_at) / Fold change /veh FAM212B (11763350_a_at) / RFU PLEKHG5 (11743358_a_at) / Fold change /veh PLEKHG5 (11743358_a_at) / RFU ZSCAN30 (11745921_a_at) / Fold change /veh ZSCAN30 (11745921_a_at) / RFU CMKLR1 (11741424_a_at) / Fold change /veh CMKLR1 (11741424_a_at) / RFU LOC101060620 /// MAPK8IP1 (11723275_at) / Fold change /veh LOC101060620 /// MAPK8IP1 (11723275_at) / RFU SPTSSB (11747773_x_at) / Fold change /veh SPTSSB (11747773_x_at) / RFU PRSS12 (11739890_at) / Fold change /veh PRSS12 (11739890_at) / RFU BIN1 (11741810_x_at) / Fold change /veh BIN1 (11741810_x_at) / RFU WNT11 (11732464_a_at) / Fold change /veh WNT11 (11732464_a_at) / RFU C10orf10 (11716521_a_at) / Fold change /veh C10orf10 (11716521_a_at) / RFU C5orf56 (11738089_at) / Fold change /veh C5orf56 (11738089_at) / RFU CYB561 (11721691_x_at) / Fold change /veh CYB561 (11721691_x_at) / RFU ANKRD19P (11752326_a_at) / Fold change /veh ANKRD19P (11752326_a_at) / RFU OR2T12 /// OR2T33 /// OR2T8 (11738714_s_at) / Fold change /veh OR2T12 /// OR2T33 /// OR2T8 (11738714_s_at) / RFU VCAN (11748164_a_at) / Fold change /veh VCAN (11748164_a_at) / RFU JSRP1 (11732532_at) / Fold change /veh JSRP1 (11732532_at) / RFU KRTAP10-11 (11738290_x_at) / Fold change /veh KRTAP10-11 (11738290_x_at) / RFU MYO3A (11730013_a_at) / Fold change /veh MYO3A (11730013_a_at) / RFU EBF3 (11725865_a_at) / Fold change /veh EBF3 (11725865_a_at) / RFU CAMK2N1 (11719241_x_at) / Fold change /veh CAMK2N1 (11719241_x_at) / RFU C5orf56 (11738088_a_at) / Fold change /veh C5orf56 (11738088_a_at) / RFU OLFML3 (11715873_a_at) / Fold change /veh OLFML3 (11715873_a_at) / RFU LOC100653217 /// NTM (11731650_a_at) / Fold change /veh LOC100653217 /// NTM (11731650_a_at) / RFU MAPK11 (11762145_a_at) / Fold change /veh MAPK11 (11762145_a_at) / RFU FIZ1 (11724087_x_at) / Fold change /veh FIZ1 (11724087_x_at) / RFU OASL (11726364_x_at) / Fold change /veh OASL (11726364_x_at) / RFU SOX15 (11748057_x_at) / Fold change /veh SOX15 (11748057_x_at) / RFU CD79A (11719716_a_at) / Fold change /veh CD79A (11719716_a_at) / RFU HIST1H1D (11736915_at) / Fold change /veh HIST1H1D (11736915_at) / RFU CASKIN2 (11723855_a_at) / Fold change /veh CASKIN2 (11723855_a_at) / RFU LOC730098 (11760151_x_at) / Fold change /veh LOC730098 (11760151_x_at) / RFU OR4N2 (11742367_at) / Fold change /veh OR4N2 (11742367_at) / RFU PRRT2 (11749266_a_at) / Fold change /veh PRRT2 (11749266_a_at) / RFU SNX32 (11753110_a_at) / Fold change /veh SNX32 (11753110_a_at) / RFU CDHR5 (11726645_a_at) / Fold change /veh CDHR5 (11726645_a_at) / RFU RCAN1 (11760418_a_at) / Fold change /veh RCAN1 (11760418_a_at) / RFU FAM167A (11723789_a_at) / Fold change /veh FAM167A (11723789_a_at) / RFU FAM26E (11764081_at) / Fold change /veh FAM26E (11764081_at) / RFU ISYNA1 (11749810_s_at) / Fold change /veh ISYNA1 (11749810_s_at) / RFU ACY1 (11761880_at) / Fold change /veh ACY1 (11761880_at) / RFU 11764098_at / Fold change /veh 11764098_at / RFU SAMD14 (11745864_x_at) / Fold change /veh SAMD14 (11745864_x_at) / RFU NPB (11741838_a_at) / Fold change /veh NPB (11741838_a_at) / RFU TMPRSS6 (11731388_a_at) / Fold change /veh TMPRSS6 (11731388_a_at) / RFU KRTAP10-2 (11738614_at) / Fold change /veh KRTAP10-2 (11738614_at) / RFU ARHGAP8 /// PRR5-ARHGAP8 (11727945_x_at) / Fold change /veh ARHGAP8 /// PRR5-ARHGAP8 (11727945_x_at) / RFU KRTAP5-7 /// NADSYN1 (11734609_at) / Fold change /veh KRTAP5-7 /// NADSYN1 (11734609_at) / RFU RASL12 (11751679_a_at) / Fold change /veh RASL12 (11751679_a_at) / RFU CDKN2B (11736163_a_at) / Fold change /veh CDKN2B (11736163_a_at) / RFU PRF1 (11729649_at) / Fold change /veh PRF1 (11729649_at) / RFU, ZNF638 /// ZNF638-IT1 / Fold change vs veh, ZNF638 /// ZNF638-IT1 / RFU, PANK3 / Fold change vs veh, PANK3 / RFU, SH3YL1 / Fold change vs veh, SH3YL1 / RFU, ZEB2 / Fold change vs veh, ZEB2 / RFU, NRIP1 / Fold change vs veh, NRIP1 / RFU, PTTG1IP / Fold change vs veh, PTTG1IP / RFU, CAPN2 / Fold change vs veh, CAPN2 / RFU, MED14 / Fold change vs veh, MED14 / RFU, SNORA58 / Fold change vs veh, SNORA58 / RFU, C1orf63 / Fold change vs veh, C1orf63 / RFU, LRRFIP1 / Fold change vs veh, LRRFIP1 / RFU, NDUFAF7 / Fold change vs veh, NDUFAF7 / RFU, SLC12A2 / Fold change vs veh, SLC12A2 / RFU, IBTK / Fold change vs veh, IBTK / RFU, ESF1 / Fold change vs veh, ESF1 / Fold change vs veh, TMEM50B / RFU, TAOK1 / Fold change vs veh, TAOK1 / RFU, ACBD3 / Fold change vs veh, ACBD3 / RFU, TMA16 / Fold change vs veh, TMA16 / RFU, RWDD3 / Fold change vs veh, RWDD3 / RFU, BCAT1 / Fold change vs veh, BCAT1 / RFU, EDEM3 / Fold change vs veh, EDEM3 / RFU, TMEM33 / Fold change vs veh, TMEM33 / RFU, WDR75 / Fold change vs veh, WDR75 / RFU, AHCTF1 / Fold change vs veh, AHCTF1 / RFU, TFRC / Fold change vs veh, TFRC / RFU, ZDHHC17 / Fold change vs veh, ZDHHC17 / RFU, NOM1 / Fold change vs veh, NOM1 / RFU, ARL8B / Fold change vs veh, ARL8B / RFU, ZBTB11 / Fold change vs veh, ZBTB11 / RFU, TAMM41 / Fold change vs veh, TAMM41 / RFU, KIAA1704 /// LOC100996395 / Fold change vs veh, KIAA1704 /// LOC100996395 / RFU, ING1 / Fold change vs veh, ING1 / RFU, TRMT61B / Fold change vs veh, TRMT61B / RFU, FUBP3 / Fold change vs veh, FUBP3 / RFU, TP53 / Fold change vs veh, TP53 / RFU, TNKS2 / Fold change vs veh, TNKS2 / RFU, ZFP14 / Fold change vs veh, ZFP14 / RFU, ACTR2 / Fold change vs veh, ACTR2 / RFU, PPP3R1 / Fold change vs veh, PPP3R1 / RFU, PIK3R1 / Fold change vs veh, PIK3R1 / RFU, HNRNPA1 / Fold change vs veh, HNRNPA1 / RFU, RNF170 / Fold change vs veh, RNF170 / RFU, ZNF28 / Fold change vs veh, ZNF28 / RFU, RNGTT / Fold change vs veh, RNGTT / RFU, OGT / Fold change vs veh, OGT / RFU, BRD1 / Fold change vs veh, BRD1 / RFU, MARS / Fold change vs veh, MARS / RFU, ZNF655 / Fold change vs veh, ZNF655 / RFU, FAHD1 / Fold change vs veh, FAHD1 / RFU, BDP1 / Fold change vs veh, BDP1 / RFU, LRRCC1 / Fold change vs veh, LRRCC1 / RFU, ARID1A / Fold change vs veh, ARID1A / RFU, ZNF146 / Fold change vs veh, ZNF146 / RFU, ZNF330 / Fold change vs veh, ZNF330 / RFU, GPN3 / Fold change vs veh, GPN3 / RFU, C9orf123 / Fold change vs veh, C9orf123 / RFU, N4BP2L2 / Fold change vs veh, N4BP2L2 / RFU, ARFIP1 / Fold change vs veh, ARFIP1 / RFU, FAM179B / Fold change vs veh, FAM179B / RFU, BCL10 / Fold change vs veh, BCL10 / RFU, UHRF1BP1L / Fold change vs veh, UHRF1BP1L / RFU, BET1 / Fold change vs veh, BET1 / RFU, CNOT2 / Fold change vs veh, CNOT2 / RFU, ZNF268 / Fold change vs veh, ZNF268 / Fold change vs veh, ZNF507 / RFU, DGCR2 / Fold change vs veh, DGCR2 / RFU, WDSUB1 / Fold change vs veh, WDSUB1 / Fold change vs veh, HSP90B1 /// MIR3652 / RFU, ADSS / Fold change vs veh, ADSS / RFU, GK / Fold change vs veh, GK / RFU, ZNF148 / Fold change vs veh, ZNF148 / RFU, TAF9 / Fold change vs veh, TAF9 / RFU, SLC1A5 / Fold change vs veh, SLC1A5 / RFU, SLMO2 / Fold change vs veh, SLMO2 / RFU, ABCC4 / Fold change vs veh, ABCC4 / RFU, LOC101060439 /// RAP1B / Fold change vs veh, LOC101060439 /// RAP1B / RFU, RFX7 / Fold change vs veh, RFX7 / RFU, GTPBP10 / Fold change vs veh, GTPBP10 / RFU, CNEP1R1 / Fold change vs veh, CNEP1R1 / RFU, BIVM-ERCC5 /// ERCC5 / Fold change vs veh, BIVM-ERCC5 /// ERCC5 / RFU, ILF3 / Fold change vs veh, ILF3 / RFU 11762660_at / Fold change /veh 11762660_at / RFU VCAN (11757783_s_at) / Fold change /veh VCAN (11757783_s_at) / RFU DDX43 (11728927_at) / Fold change /veh DDX43 (11728927_at) / RFU KRT8 (11758188_x_at) / Fold change /veh KRT8 (11758188_x_at) / RFU NKD1 (11759106_at) / Fold change /veh NKD1 (11759106_at) / RFU SRD5A1 (11742802_a_at) / Fold change /veh SRD5A1 (11742802_a_at) / RFU TPSAB1 /// TPSB2 (11721975_s_at) / Fold change /veh TPSAB1 /// TPSB2 (11721975_s_at) / RFU GSTM3 (11746129_a_at) / Fold change /veh GSTM3 (11746129_a_at) / RFU IL23R (11737362_x_at) / Fold change /veh IL23R (11737362_x_at) / RFU TMEM51 (11727254_a_at) / Fold change /veh TMEM51 (11727254_a_at) / RFU PIWIL2 (11732686_x_at) / Fold change /veh PIWIL2 (11732686_x_at) / RFU ORM1 (11744905_x_at) / Fold change /veh ORM1 (11744905_x_at) / RFU CCDC152 (11743942_at) / Fold change /veh CCDC152 (11743942_at) / RFU ECM1 (11717891_a_at) / Fold change /veh ECM1 (11717891_a_at) / RFU IL23R (11748794_a_at) / Fold change /veh IL23R (11748794_a_at) / RFU TNFAIP8L3 (11732012_x_at) / Fold change /veh TNFAIP8L3 (11732012_x_at) / RFU MBOAT4 (11741988_at) / Fold change /veh MBOAT4 (11741988_at) / RFU 11764193_at / Fold change /veh 11764193_at / RFU TMEM53 (11763286_at) / Fold change /veh TMEM53 (11763286_at) / RFU MAGEB2 (11727129_at) / Fold change /veh MAGEB2 (11727129_at) / RFU TMEM200A (11744735_a_at) / Fold change /veh TMEM200A (11744735_a_at) / RFU CCDC152 (11751479_a_at) / Fold change /veh CCDC152 (11751479_a_at) / RFU FAM211A (11726209_a_at) / Fold change /veh FAM211A (11726209_a_at) / RFU RGS16 (11746705_a_at) / Fold change /veh RGS16 (11746705_a_at) / RFU VCAN (11755009_s_at) / Fold change /veh VCAN (11755009_s_at) / RFU RHOB (11743442_s_at) / Fold change /veh RHOB (11743442_s_at) / RFU RGS16 (11720943_a_at) / Fold change /veh RGS16 (11720943_a_at) / RFU RGS16 (11720944_at) / Fold change /veh RGS16 (11720944_at) / RFU, VPS4B / Fold change vs veh, VPS4B / RFU, CREB1 / Fold change vs veh, CREB1 / RFU, DNAJC13 / Fold change vs veh, DNAJC13 / RFU, GNAQ / Fold change vs veh, GNAQ / RFU, CDK5R1 / Fold change vs veh, CDK5R1 / RFU, ZRANB3 / Fold change vs veh, ZRANB3 / RFU, CUL4A / Fold change vs veh, CUL4A / RFU, CCNY / Fold change vs veh, CCNY / RFU, UFL1 / Fold change vs veh, UFL1 / RFU, COG3 / Fold change vs veh, COG3 / RFU, DIAPH2 / Fold change vs veh, DIAPH2 / RFU, SKA2 / Fold change vs veh, SKA2 / RFU, AFF3 / Fold change vs veh, AFF3 / RFU, LMF1 / Fold change vs veh, LMF1 / RFU, IPO11 / Fold change vs veh, IPO11 / RFU, DFFB / Fold change vs veh, DFFB / RFU, FOXP1 / Fold change vs veh, FOXP1 / RFU, CARD8 / Fold change vs veh, CARD8 / RFU, STRN3 / Fold change vs veh, STRN3 / RFU, ADK / Fold change vs veh, ADK / RFU, RASSF2 / Fold change vs veh, RASSF2 / RFU, WIPF1 / Fold change vs veh, WIPF1 / RFU, LARP1B / Fold change vs veh, LARP1B / RFU, RASA1 / Fold change vs veh, RASA1 / RFU, RB1 / Fold change vs veh, RB1 / RFU, PPFIA1 / Fold change vs veh, PPFIA1 / RFU, MAT2A / Fold change vs veh, MAT2A / RFU, CCT5 / Fold change vs veh, CCT5 / RFU, WDR92 / Fold change vs veh, WDR92 / RFU, CUX1 / Fold change vs veh, CUX1 / RFU, TTC7A / Fold change vs veh, TTC7A / RFU, TMEM135 / Fold change vs veh, TMEM135 / RFU, DEPTOR / Fold change vs veh, DEPTOR / RFU, CPM / Fold change vs veh, CPM / RFU, DNAJB6 / Fold change vs veh, DNAJB6 / RFU, CACNA2D3 / Fold change vs veh, CACNA2D3 / RFU, DTX4 / Fold change vs veh, DTX4 / RFU, TFCP2 / Fold change vs veh, TFCP2 / RFU, GMCL1 /// GMCL1P1 / Fold change vs veh, GMCL1 /// GMCL1P1 / RFU, AEBP2 / Fold change vs veh, AEBP2 / RFU, SNHG1 /// SNORD22 /// SNORD25 /// SNORD26 /// SNORD27 /// SNORD28 /// SNORD29 /// SNORD31 / Fold change vs veh, SNHG1 /// SNORD22 /// SNORD25 /// SNORD26 /// SNORD27 /// SNORD28 /// SNORD29 /// SNORD31 / Fold change (Aza/veh), C12orf56 (ProbeSet 11735607_a_at) / Fold change (ACY-1035/veh), C12orf56 (ProbeSet 11735607_a_at) / Fold change (Aza/veh), FGFR1OP (ProbeSet 11751329_s_at) / Fold change (ACY-1035/veh), FGFR1OP (ProbeSet 11751329_s_at) / Fold change (Aza/veh), VPS36 (ProbeSet 11739960_a_at) / Fold change (ACY-1035/veh), VPS36 (ProbeSet 11739960_a_at) / RFU SYPL1 (11715823_x_at) / Fold change /veh SYPL1 (11715823_x_at) / RFU IGFBP7 (11715501_s_at) / Fold change /veh IGFBP7 (11715501_s_at) / RFU REEP3 (11722064_at) / Fold change /veh REEP3 (11722064_at) / RFU IGLL1 (11728026_x_at) / Fold change /veh IGLL1 (11728026_x_at): dose or concentration left out as unconfirmed
Conditions: ProbeSet 11755159_a_at; LIST D

For `Nc1ccc(-c2cccs2)cc1NC(=O)c1ccc2c(c1)cc(C1CC1)n2CCN1CCOCC1` [ACY-1035], the “RFU, COG3” value was 86.80 RFU.

Source: publication PMC5218480 (PLoS ONE, 2017)
